Several values for one entry are separate records, joined by “and”; a condition that tells them apart may be missing. Identical values can stand only once.
Experiments:
hNCI-H716 [1] = test: hNCI-H716 GLP-1 secretion; format: cell-based
Excerpt: (§1) Selected compounds of this invention were screened for K-Ras Wnt synthetic lethal, anti-angiogenic activity, Wnt pathway modulatory activity, insulin and GLP-1 secretion modulatory activity, GPR119 receptor agonist activity, mGlu2R antagonist activity, CGRP receptor antagonist activity, Apelin receptor agonist activity and hexokinase 2 inhibitory activity using the PD^2 and TD^2 Screening Panel (Eli Lilly & Company). See Lee, et al. (2011) J. Biomol. Screen. 16:588-602.
(§2) In light of the above results, additional compounds (Table 7) were prepared and phenotypic assays were carried out using hNCI-H716 and mSTC-1 cell lines to monitor GLP-1 secretion (single point (SP) and concentration response curves (CRC)) (Table 8), as well as a secondary assay with pituitary cells (Table 9).

GLP-1 (X-36 amide) = test: Plasma GLP-1 response to oral compound in mice; format: in vivo, Mice (male C57BL/6); conditions: oral 100 mg/kg, plasma 30 minutes post-dose
Experimental: (§3) Mice (male C57BL/6, 8-10 weeks of age) were fasted overnight by being placed in a clean cage without food. The next day, all mice were weighed and assigned to groups of similar body weights. Test compounds were formulated in 1% HEC, 0.25% TWEEN 80, 0.05% antifoam (vehicle control). Compounds 11ls and llu were orally dosed (100 mg/kg) and cardiac sticks were done on CO2 euthanized mice at 30 minutes post-dose. Blood (500+μL whole blood) from the cardiac stick was placed in chilled EDTA-plasma tubes with inhibitors, DPP4 inhibitor (5 μL/500 μL blood) and aprotinin (bovine lung, […]/500 μL blood), and stored on ice. Plasma was separated by centrifugation and aliquoted for compound exposure to total GIP and GLP-1 (X-36 amide). Plates for compound exposure were analyzed for absorption, distribution, metabolism, and excretion, while conventional kits were used for GLP-1 (x-36) amide (Mesoscale) and GIP (Millipore) analyses.

mSTC-1 = mSTC-1 GLP-1 secretion; format: cell-based; conditions: concentration response curve, read-out: Primary CRC (EC50, μM) mSTC
Experimental: as §2

[2] = Plasma compound exposure after oral dosing in mice; format: in vivo, Mice (male C57BL/6); conditions: oral 100 mg/kg, 30 minutes post-dose
Experimental: as §3

GIP = test: Plasma GIP response to oral compound in mice; format: in vivo, Mice (male C57BL/6); conditions: oral 100 mg/kg, plasma 30 minutes post-dose
Experimental: as §3

hNCI-H716 [3] = test: hNCI basal LDH secretion; format: cell-based; conditions: read-out: Primary CRC (EC50, μM) hNCI Basal
Experimental: as §2

SNU-C1 = test: K-Ras Wnt synthetic lethal, SNU-C1 KrasSL; format: cell-based; conditions: Homo sapiens, read-out: SNU-C1 KrasSL % Inhibit
Excerpt: as §1

hCGRP1 = hCGRP1 (Homo sapiens, UniProt O60894+Q16602); test: CGRP receptor antagonist, hCGRP1 antagonism; format: cell-based
Chain of hCGRP1 (Q16602 23-461): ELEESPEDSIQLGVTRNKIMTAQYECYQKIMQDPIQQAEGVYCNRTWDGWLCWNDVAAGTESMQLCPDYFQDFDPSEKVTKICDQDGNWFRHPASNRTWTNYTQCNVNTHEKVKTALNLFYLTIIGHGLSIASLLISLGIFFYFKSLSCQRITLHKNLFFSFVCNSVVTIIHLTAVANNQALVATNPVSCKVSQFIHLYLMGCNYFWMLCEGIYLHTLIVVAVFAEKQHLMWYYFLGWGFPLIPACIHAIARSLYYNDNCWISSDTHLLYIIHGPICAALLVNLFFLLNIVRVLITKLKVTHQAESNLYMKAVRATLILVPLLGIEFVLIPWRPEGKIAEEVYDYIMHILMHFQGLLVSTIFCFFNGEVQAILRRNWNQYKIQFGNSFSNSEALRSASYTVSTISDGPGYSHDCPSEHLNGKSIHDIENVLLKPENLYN
Chain of hCGRP1 (O60894 27-148 partner): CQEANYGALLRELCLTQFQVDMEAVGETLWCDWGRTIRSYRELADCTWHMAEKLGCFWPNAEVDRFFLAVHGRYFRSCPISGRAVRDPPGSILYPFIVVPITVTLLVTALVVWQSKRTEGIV
Excerpt: as §1

Angio Tube Area = test: Anti-angiogenic activity, Angio Tube Area; format: cell-based; conditions: read-out: Angio Tube Area % Inhibit
Excerpt: as §1

hApelin = target: T1, hApelin (Homo sapiens, UniProt P35414); test: Apelin receptor agonist, hApelin agonism; format: cell-based; conditions: @ 30 μM
T1 sequence (P35414 1-380): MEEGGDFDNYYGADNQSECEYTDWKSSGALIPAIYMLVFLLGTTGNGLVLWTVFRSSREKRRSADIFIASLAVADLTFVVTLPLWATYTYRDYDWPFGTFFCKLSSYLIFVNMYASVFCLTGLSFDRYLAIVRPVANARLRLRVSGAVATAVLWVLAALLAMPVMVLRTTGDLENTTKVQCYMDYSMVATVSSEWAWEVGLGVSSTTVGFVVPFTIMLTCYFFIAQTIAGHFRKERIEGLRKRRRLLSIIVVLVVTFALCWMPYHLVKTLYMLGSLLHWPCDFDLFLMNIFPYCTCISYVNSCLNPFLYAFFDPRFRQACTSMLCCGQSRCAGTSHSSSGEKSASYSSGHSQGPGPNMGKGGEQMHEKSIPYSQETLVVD
Excerpt: as §1

Wnt Pathway = test: Wnt pathway modulatory activity, Osteo bCat; format: cell-based
Excerpt: as §1

hHK2 = target: T2, hHK2 (Homo sapiens, UniProt P52789); test: Hexokinase 2 inhibitor, hHK2 ADP-FP; format: biochemical
T2 sequence (P52789 1-917): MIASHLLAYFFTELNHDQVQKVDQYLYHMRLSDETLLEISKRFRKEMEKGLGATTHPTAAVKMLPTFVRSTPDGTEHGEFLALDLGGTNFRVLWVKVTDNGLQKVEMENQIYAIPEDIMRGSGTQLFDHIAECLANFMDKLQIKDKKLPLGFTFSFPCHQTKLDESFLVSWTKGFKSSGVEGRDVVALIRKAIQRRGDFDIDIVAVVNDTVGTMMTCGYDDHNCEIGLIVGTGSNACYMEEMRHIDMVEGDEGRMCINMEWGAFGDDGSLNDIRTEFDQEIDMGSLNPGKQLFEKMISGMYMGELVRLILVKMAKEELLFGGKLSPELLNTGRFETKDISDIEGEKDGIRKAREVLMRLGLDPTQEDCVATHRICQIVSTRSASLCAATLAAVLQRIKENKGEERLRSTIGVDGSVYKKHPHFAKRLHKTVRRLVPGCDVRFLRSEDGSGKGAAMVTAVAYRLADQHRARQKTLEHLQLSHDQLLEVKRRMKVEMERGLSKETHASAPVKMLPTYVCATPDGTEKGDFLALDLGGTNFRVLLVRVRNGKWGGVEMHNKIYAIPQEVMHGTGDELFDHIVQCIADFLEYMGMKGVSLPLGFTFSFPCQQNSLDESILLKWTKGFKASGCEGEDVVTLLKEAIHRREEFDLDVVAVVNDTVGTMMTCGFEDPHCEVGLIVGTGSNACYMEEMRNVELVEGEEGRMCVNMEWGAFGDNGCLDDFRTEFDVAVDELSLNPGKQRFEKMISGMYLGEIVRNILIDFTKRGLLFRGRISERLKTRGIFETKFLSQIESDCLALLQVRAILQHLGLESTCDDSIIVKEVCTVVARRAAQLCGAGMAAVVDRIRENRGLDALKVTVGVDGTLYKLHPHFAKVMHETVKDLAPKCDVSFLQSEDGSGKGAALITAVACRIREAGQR
Excerpt: as §1

hGPR119 = target: T3, hGPR119 (Homo sapiens, UniProt Q8TDV5); test: GPR119 receptor agonist, hGPR119 agonism; format: cell-based; conditions: @ 10 μM
T3 sequence (Q8TDV5 1-335): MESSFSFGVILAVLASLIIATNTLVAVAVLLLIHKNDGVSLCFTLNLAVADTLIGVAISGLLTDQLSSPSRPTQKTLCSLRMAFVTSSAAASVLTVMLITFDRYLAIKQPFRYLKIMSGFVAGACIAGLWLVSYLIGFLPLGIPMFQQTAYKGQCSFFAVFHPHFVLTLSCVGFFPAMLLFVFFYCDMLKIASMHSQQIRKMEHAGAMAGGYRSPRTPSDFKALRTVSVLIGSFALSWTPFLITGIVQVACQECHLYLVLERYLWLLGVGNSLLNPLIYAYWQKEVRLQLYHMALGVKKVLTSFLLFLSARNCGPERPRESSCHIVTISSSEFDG
Excerpt: as §1

HCT116 = test: K-Ras Wnt synthetic lethal, HCT116 KrasSL; format: cell-based; conditions: Homo sapiens, HCT-116, read-out: HCT116 KrasSL % Inhibit
Excerpt: as §1

Pituitary Cells = test: Secondary assay, pituitary cells growth hormone secretion; format: cell-based; conditions: @ 3.3 μM
Experimental: as §2

Co1o320 = test: K-Ras Wnt synthetic lethal, Co1o320 KrasSL; format: cell-based; conditions: read-out: Co1o320 KrasSL % Inhibit
Excerpt: as §1

RKO = test: K-Ras Wnt synthetic lethal, RKO KrasSL; format: cell-based; conditions: Homo sapiens, average of three independent experiments, read-out: RKO KrasSL % Inhibit
Excerpt: as §1

hMGLUR2 = hMGLUR2 (Homo sapiens, UniProt Q14416); test: mGlu2R antagonist, hMGLUR2; format: cell-based
Chain of hMGLUR2 (Q14416 19-872): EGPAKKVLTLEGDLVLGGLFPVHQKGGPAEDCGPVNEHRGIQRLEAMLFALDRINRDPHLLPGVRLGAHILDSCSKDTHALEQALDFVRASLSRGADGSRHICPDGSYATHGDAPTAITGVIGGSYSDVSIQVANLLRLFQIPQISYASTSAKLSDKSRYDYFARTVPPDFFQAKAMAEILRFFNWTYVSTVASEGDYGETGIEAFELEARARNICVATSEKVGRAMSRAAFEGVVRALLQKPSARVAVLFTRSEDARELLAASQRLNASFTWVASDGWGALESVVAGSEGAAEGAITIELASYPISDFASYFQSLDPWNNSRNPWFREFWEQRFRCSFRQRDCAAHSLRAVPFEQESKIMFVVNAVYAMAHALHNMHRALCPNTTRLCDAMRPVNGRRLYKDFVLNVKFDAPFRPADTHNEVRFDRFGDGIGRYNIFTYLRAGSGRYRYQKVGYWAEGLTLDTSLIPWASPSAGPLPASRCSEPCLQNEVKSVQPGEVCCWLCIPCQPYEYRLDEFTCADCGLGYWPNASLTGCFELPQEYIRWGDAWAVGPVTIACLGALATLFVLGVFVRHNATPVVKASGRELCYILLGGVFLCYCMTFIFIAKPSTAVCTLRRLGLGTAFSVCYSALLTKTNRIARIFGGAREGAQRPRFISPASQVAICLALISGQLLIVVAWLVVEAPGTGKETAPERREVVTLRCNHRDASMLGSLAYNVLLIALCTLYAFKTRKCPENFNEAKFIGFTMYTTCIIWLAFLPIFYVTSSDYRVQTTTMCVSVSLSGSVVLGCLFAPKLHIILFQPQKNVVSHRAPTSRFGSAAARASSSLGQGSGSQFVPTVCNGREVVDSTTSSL
Excerpt: as §1

Insulin Secretion = test: Insulin secretion, Secretion Hi Gluc; format: cell-based
Excerpt: as §1

## CC1(C)c2c([nH]c3ccc(I)cc23)C2C=CC1C2 (stereo not drawn) [Compound 11u]
hNCI-H716 [1]; 2 μM, GLP-1 secretion, single point
  Primary SP hNCI (% Stim.): 0%
hNCI-H716 [1]; 20 μM, GLP-1 secretion, single point
  Primary SP hNCI (% Stim.): 57%
GLP-1 (X-36 amide)
  Avg. GLP-1 (pg/mL) ±SEM: 7.66 ± 0.89 pg/mL
mSTC-1
  EC50: 2 µM and 3.2 µM
[2]
  mean (±standard deviation) plasma levels: 201.6 ± 37.24 ng/mL
GIP
  Avg. GIP (pg/mL) ±SEM: 26.23 ± 10.35 pg/mL
hNCI-H716 [3]
  EC50: 35.8 µM

## CC1(C)c2c([nH]c3ccc(Br)cc23)C2C=CC1C2 (stereo not drawn) [Compound 11t]
SNU-C1; @ 0.2 μM
  inhibition at 0.2 µM: -1%
SNU-C1; @ 2 μM
  inhibition at 2 µM: -19.1%
SNU-C1; @ 20 μM
  inhibition at 20 µM: 107%
hCGRP1
  inhibition at 30 µM: 67.7%
Angio Tube Area; @ 2 μM
  inhibition at 2 µM: 8%
Angio Tube Area; @ 10 μM
  inhibition at 10 µM: 38%
hApelin
  hApelin agonism % Stimulation: −52.8%
Wnt Pathway; @ 2 μM
  Osteo bCat % Stimulation: 1.8%
Wnt Pathway; @ 10 μM
  Osteo bCat % Stimulation: 5.5%
hHK2
  inhibition at 20 µM: 3.2%
hGPR119
  hGPR119 agonism % Stimulation: −2.3%
HCT116; @ 0.2 μM
  inhibition at 0.2 µM: 5.3%
HCT116; @ 2 μM
  inhibition at 2 µM: -11.5%
HCT116; @ 20 μM
  inhibition at 20 µM: 104%
Pituitary Cells
  Pituitary Cells (Growth Hormone Secretion, % Stimulation): −12.6% and −7.1%
hNCI-H716 [1]; 2 μM, GLP-1 secretion, single point, read-out: Primary SP hNCI (% Stim.)
  activation at 2 µM: 0%
hNCI-H716 [1]; 20 μM, GLP-1 secretion, single point, read-out: Primary SP hNCI (% Stim.)
  activation at 20 µM: 35.2%
hNCI-H716 [1]; @ 2 μM
  hNCI GLP-1 Secretion % Stimulation: 0%
hNCI-H716 [1]; @ 20 μM
  hNCI GLP-1 Secretion % Stimulation: 35.2%
hNCI-H716 [1]; GLP-1 secretion, concentration response curve, read-out: Primary CRC (EC50, μM) hNCI
  EC50: 29.1 µM and 17.6 µM and 16.4 µM
hNCI-H716 [1]; average of three independent experiments, read-out: hNCI GLP-1 Secretion EC50
  EC50: 29.1 µM
hNCI-H716 [1]; secretion and/or production of GLP-1, read-out: EC50 values (Table 6)
  EC50: 29 µM
Co1o320; @ 0.2 μM
  inhibition at 0.2 µM: -6.6%
Co1o320; @ 2 μM
  inhibition at 2 µM: 23.1%
Co1o320; @ 20 μM
  inhibition at 20 µM: 152%
mSTC-1
  EC50: 2.4 µM and 4.1 µM and 2.2 µM
RKO; @ 0.2 μM
  inhibition at 0.2 µM: -5.8%
RKO; @ 2 μM
  inhibition at 2 µM: 17.6%
RKO; @ 20 μM
  inhibition at 20 µM: 102%
hMGLUR2
  inhibition at 50 µM: -19.7%
Insulin Secretion; @ 2 μM
  Secretion Hi Gluc % Stimulation: 0.1%
Insulin Secretion; @ 10 μM
  Secretion Hi Gluc % Stimulation: 19.1%
